We go through 10 compounds from patent US20250127904A1, “SIGLEC LIGANDS, CONJUGATES, AND METHODS OF USE THEREOF” (Osprey Biopharmaceuticals, Inc., priority 2023, published 2025).

In experiment [1] the target is T1, biotinylated human siglec-2/CD22 protein-His-Avitag (Homo sapiens, UniProt P20273).
T1 construct: purchased Acro Biosystems SI2-H82E3
T1 sequence (P20273 20-847): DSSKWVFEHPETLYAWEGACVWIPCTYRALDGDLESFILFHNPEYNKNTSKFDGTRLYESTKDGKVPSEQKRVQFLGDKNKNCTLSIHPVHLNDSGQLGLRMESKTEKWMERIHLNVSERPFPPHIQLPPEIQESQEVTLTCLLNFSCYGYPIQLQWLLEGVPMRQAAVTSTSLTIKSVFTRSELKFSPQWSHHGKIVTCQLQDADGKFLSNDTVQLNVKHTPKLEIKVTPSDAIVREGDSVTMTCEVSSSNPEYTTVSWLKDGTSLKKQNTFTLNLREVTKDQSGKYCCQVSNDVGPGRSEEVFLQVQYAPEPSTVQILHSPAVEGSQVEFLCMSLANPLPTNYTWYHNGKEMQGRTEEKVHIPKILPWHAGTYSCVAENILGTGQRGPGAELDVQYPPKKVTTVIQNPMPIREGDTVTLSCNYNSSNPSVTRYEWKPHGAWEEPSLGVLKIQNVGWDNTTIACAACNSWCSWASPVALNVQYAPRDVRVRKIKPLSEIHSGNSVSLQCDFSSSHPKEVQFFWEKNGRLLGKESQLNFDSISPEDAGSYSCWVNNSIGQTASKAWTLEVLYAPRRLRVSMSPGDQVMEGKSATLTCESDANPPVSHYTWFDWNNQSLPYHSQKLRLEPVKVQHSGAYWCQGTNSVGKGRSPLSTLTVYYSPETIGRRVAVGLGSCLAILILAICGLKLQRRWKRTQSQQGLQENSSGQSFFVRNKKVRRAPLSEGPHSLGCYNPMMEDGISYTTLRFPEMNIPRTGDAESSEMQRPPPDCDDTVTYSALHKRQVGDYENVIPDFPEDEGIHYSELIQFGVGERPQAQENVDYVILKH
Description: SPR binding to human siglec-2/CD22. To be noted: steady-state analysis, read-out: Human CD22 affinity. On the procedure: (§1) The following proteins were used for CD22 ligand binding: biotinylated human siglec-2/CD22 protein-His-Avitag (Acro Biosystems, Cat #SI2-H82E3), biotinylated mouse siglec-2-Fc-Avi (in-house production), and recombinant cynomolgus siglec-2/CD22 His-tag (R&D systems, Cat #9864-SL-050). Prior to immobilization, CD22 proteins were treated with SialoExo (Genovis, Cat #G1-SM1-020) for 4 hours at 37° C. to remove native sialic acid residues.
(§2) Capture of biotinylated CD22 constructs was performed using a Cytiva SA chip (BR100398) on a Biacore 8K instrument. Human siglec 2 was immobilized on channels 1-4 and mouse siglec 2 on channels 5-8 on the active flow cell (2) and the reference flow cell (1) was immobilized with biotinylated human FGFR2 Fc Avi, an unrelated protein, to account for any nonspecific binding. Human siglec 2 and Mouse siglec 2 were diluted in running buffer to 20 μg/mL and injected on the active flow cell (2) for 300 seconds at 5 μL/min, yielding about 3500 RU of captured constructs.
(§3) Binding experiments of siglec-ligand conjugated proteins or Siglec ligand compounds were performed on the surfaces prepared above in 10 mM HEPES, 150 mM NaCl, 0.05% Tween-20, pH 7.5, 1% DMSO as the running buffer. Compounds were serially diluted in running buffer from 50 μM to 97.6 nM and injected over both the reference and active flow cells for 90 seconds at 30 μL/min. The compounds were then allowed to dissociate from the surface for 120 seconds. No regeneration was required as the compounds completely dissociated from the surface after 30 seconds. Solvent correction was performed using 0.5, 1, 1.5, and 2% DMSO spike into running buffer without DMSO. Data was analyzed using steady-state analysis in Biacore Insight Evaluation Software, version 3.0.

Experiment [2] deals with T2, biotinylated mouse siglec-2-Fc-Avi (Mus musculus, UniProt P35329).
T2 construct: made in house
T2 sequence (P35329 22-708 limits assumed): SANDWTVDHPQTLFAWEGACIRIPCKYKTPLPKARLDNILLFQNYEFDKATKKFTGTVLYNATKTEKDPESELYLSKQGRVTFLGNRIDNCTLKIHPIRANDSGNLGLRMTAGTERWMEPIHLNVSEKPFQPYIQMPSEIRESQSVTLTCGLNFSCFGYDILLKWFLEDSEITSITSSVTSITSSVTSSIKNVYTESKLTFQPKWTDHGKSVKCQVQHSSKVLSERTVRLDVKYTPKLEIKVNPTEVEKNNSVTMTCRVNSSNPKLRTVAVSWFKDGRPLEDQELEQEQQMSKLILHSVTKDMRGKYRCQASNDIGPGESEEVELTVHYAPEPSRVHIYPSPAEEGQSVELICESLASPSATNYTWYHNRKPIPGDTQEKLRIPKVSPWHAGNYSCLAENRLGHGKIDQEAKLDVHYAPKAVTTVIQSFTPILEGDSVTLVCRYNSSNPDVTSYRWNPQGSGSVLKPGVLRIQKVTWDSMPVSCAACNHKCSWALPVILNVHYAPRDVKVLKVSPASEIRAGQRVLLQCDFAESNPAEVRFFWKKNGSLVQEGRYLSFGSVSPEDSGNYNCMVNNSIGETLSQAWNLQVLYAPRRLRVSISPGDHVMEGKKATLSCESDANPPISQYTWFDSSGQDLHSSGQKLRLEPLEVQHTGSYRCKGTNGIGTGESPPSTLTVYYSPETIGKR
Kind of experiment: SPR binding to mouse siglec-2/CD22. To be noted: steady-state analysis, read-out: Mouse CD22 affinity. On the procedure: as §1, §2, §3
In general terms: SPR reads the build-up and loss of mass on a sensor chip optically.

Experiment [3] addresses recombinant cynomolgus siglec-2/CD22 His-tag (Macaca fascicularis, UniProt A0A2K5WCZ6). Description: SPR binding to cynomolgus siglec-2/CD22. The settings on record: steady-state analysis, read-out: Cyno CD22 affinity. As to the method: as §1
Surface preparation for cyno CD22 protein consisted of amine coupling to Cytiva CM5 chip (Cytiva, Cat #BR100530) using the Cytiva amine coupling kit Type 2 (Cytiva, Cat #BR100633). Following the standard amine coupling protocols, EDC and NHS from the kit were mixed 1:1 and injected over flow cells 1 and 2. Cyno CD22 was then immobilized by injecting 10 μg/mL in Sodium Acetate, pH 5.5 onto flow cell (2) for 420 seconds at 10 uL/min, yielding approximately 2500 RU of captured protein. Any active carboxy groups were then capped with 1M Ethanolamine, pH 8.5 for 420 s on flow cells 1 and 2.
as §3

recombinant cynomolgus siglec-2/CD22 His-tag, sequence (A0A2K5WCZ6 entry or part of it): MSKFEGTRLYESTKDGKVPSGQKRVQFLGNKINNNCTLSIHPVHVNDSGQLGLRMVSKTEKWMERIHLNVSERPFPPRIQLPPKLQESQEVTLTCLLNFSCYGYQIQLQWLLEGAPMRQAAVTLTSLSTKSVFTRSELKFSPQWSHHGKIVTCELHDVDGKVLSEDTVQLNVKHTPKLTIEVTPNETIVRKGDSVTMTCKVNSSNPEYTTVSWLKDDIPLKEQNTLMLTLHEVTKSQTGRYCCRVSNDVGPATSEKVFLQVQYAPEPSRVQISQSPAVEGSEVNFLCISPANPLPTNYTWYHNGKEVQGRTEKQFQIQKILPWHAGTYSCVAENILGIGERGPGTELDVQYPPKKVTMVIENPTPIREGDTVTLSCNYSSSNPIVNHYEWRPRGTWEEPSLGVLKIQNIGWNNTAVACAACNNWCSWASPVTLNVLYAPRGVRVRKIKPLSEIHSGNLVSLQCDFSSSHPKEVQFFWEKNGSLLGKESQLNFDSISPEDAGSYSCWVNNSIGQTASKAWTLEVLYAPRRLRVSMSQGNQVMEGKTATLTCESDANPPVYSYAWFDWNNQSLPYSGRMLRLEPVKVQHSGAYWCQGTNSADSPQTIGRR

In the case of `O=C(O)CCCCCCCCC#Cc1ccc(CC(=O)NC[C@@H](O)[C@@H](O)[C@@H]2O[C@@](OCc3ccccc3)(C(=O)O)C[C@H](O)[C@H]2NC(=O)CO)cc1` [Compound 14, (2R,4S,5R,6R)-2-(benzyloxy)-6-((1R,2R)-3-(2-(4-(10-carboxydec-1-yn-1-yl)phenyl)acetamido)-1,2-dihydroxypropyl)-4-hydroxy-5-(2-hydroxyacetamido)tetrahydro-2H-pyran-2-carboxylic acid], the Kd in experiment [1] is 1000 to 10000 nM; in experiment [2], under 1000 nM; in experiment [3], 1000 to 10000 nM.

Turning to `C#Cc1ccc(CC(=O)NC[C@@H](O)[C@@H](O)[C@@H]2O[C@@](SCc3ccccc3)(C(=O)O)C[C@H](O)[C@H]2NC(=O)CO)cc1` [Compound 12, (2S,4S,5R,6R)-2-(benzylthio)-6-((1R,2R)-3-(2-(4-ethynylphenyl)acetamido)-1,2-dihydroxypropyl)-4-hydroxy-5-(2-hydroxyacetamido)tetrahydro-2H-pyran-2-carboxylic acid], the Kd in experiment [1], in experiment [2] and in experiment [3] was under 1000 nM throughout.

Regarding `C#CCO[C@H]1C[C@](OCc2ccccc2)(C(=O)O)O[C@@H]([C@H](O)[C@H](O)CNC(=O)Cc2ccc(Cl)cc2)[C@@H]1NC(=O)CO` [Compound 18, (2R,4S,5R,6R)-2-(benzyloxy)-6-((1R,2R)-3-(2-(4-chlorophenyl)acetamido)-1,2-dihydroxypropyl)-5-(2-hydroxyacetamido)-4-(prop-2-yn-1-yloxy)tetrahydro-2H-pyran-2-carboxylic acid], the Kd in experiment [1], in experiment [2] and in experiment [3] was 1000 to 10000 nM in each case.

For `CCCNC(=O)CCOCCOCCOCCOCCn1cc(-c2ccc(CC(=O)NC[C@@H](O)[C@@H](O)[C@@H]3O[C@@](OCCCCCCOC)(C(=O)O)C[C@H](O)[C@H]3NC(=O)CO)cc2)nn1` [Compound 52, (2R,4S,5R,6R)-6-((1R,2R)-1,2-dihydroxy-3-(2-(4-(1-(15-oxo-3,6,9,12-tetraoxa-16-azanonadecyl)-1H-1,2,3-triazol-4-yl)phenyl)acetamido)propyl)-4-hydroxy-5-(2-hydroxyacetamido)-2-((6-methoxyhexyl)oxy)tetrahydro-2H-pyran-2-carboxylic acid], the Kd in experiment [1], in experiment [2] and in experiment [3] was 1000 to 10000 nM in each case.

For the compound `C#Cc1ccc(CC(=O)NC[C@@H](O)[C@@H](O)[C@@H]2O[C@@](OCc3ccccc3)(C(=O)O)C[C@H](O)[C@H]2NC(=O)CO)cc1` [Compound 1, (2R,4S,5R,6R)-2-(benzyloxy)-6-((1R,2R)-3-(2-(4-ethynylphenyl)acetamido)-1,2-dihydroxypropyl)-4-hydroxy-5-(2-hydroxyacetamido)tetrahydro-2H-pyran-2-carboxylic acid], the Kd is under 1000 nM in experiment [1], under 1000 nM in experiment [2] and 1000 to 10000 nM in experiment [3].

Take `CCCNC(=O)CCOCCOCCOCCn1cc(CO[C@H]2C[C@](OCc3ccccc3)(C(=O)O)O[C@@H]([C@H](O)[C@H](O)CNC(=O)Cc3ccc(Cl)cc3)[C@@H]2NC(=O)CO)nn1` [Compound 19, (2R,4S,5R,6R)-2-(benzyloxy)-6-((1R,2R)-3-(2-(4-chlorophenyl)acetamido)-1,2-dihydroxypropyl)-5-(2-hydroxyacetamido)-4-((1-(12-oxo-3,6,9-trioxa-13-azahexadecyl)-1H-1,2,3-triazol-4-yl)methoxy)tetrahydro-2H-pyran-2-carboxylic acid]: the Kd in experiment [1], in experiment [2] and in experiment [3] was 1000 to 10000 nM throughout.

With `C#CCO[C@H]1C[C@](OCCCCCC(=O)O)(C(=O)O)O[C@@H]([C@H](O)[C@H](O)CNC(=O)Cc2ccc(Cl)cc2)[C@@H]1NC(=O)CO` [Compound 20, (2R,4S,5R,6R)-2-((5-carboxypentyl)oxy)-6-((1R,2R)-3-(2-(4-chlorophenyl)acetamido)-1,2-dihydroxypropyl)-5-(2-hydroxyacetamido)-4-(prop-2-yn-1-yloxy)tetrahydro-2H-pyran-2-carboxylic acid], the Kd in experiment [1], in experiment [2] and in experiment [3] was 1000 to 10000 nM in each case.

Turning to `C#Cc1ccc(CC(=O)NC[C@@H](O)[C@@H](O)[C@@H]2O[C@@](OCCCCCCc3cn(CCOCCOC)nn3)(C(=O)O)C[C@H](O)[C@H]2NC(=O)CO)cc1` [Compound 27, (2R,4S,5R,6R)-6-((1R,2R)-3-(2-(4-ethynylphenyl)acetamido)-1,2-dihydroxypropyl)-4-hydroxy-5-(2-hydroxyacetamido)-2-((6-(1-(2-(2-methoxyethoxy)ethyl)-1H-1,2,3-triazol-4-yl)hexyl)oxy)tetrahydro-2H-pyran-2-carboxylic acid], the Kd in experiment [1], in experiment [2] and in experiment [3] was under 1000 nM throughout.

Regarding `C#Cc1ccc(CC(=O)NC[C@@H](O)[C@@H](O)[C@@H]2O[C@@](OCCOCCOCCOC)(C(=O)O)C[C@H](O)[C@H]2NC(=O)CO)cc1` [Compound 25, (2R,4S,5R,6R)-6-((1R,2R)-3-(2-(4-ethynylphenyl)acetamido)-1,2-dihydroxypropyl)-4-hydroxy-5-(2-hydroxyacetamido)-2-(2-(2-(2-methoxyethoxy)ethoxy)ethoxy)tetrahydro-2H-pyran-2-carboxylic acid], the Kd in experiment [1], in experiment [2] and in experiment [3] was 1000 to 10000 nM throughout.

For `C#CCOCCOCCOCCOCCOCCNC(=O)N[C@H]1[C@H]([C@H](O)[C@H](O)CNC(=O)Cc2ccc(Cl)cc2)O[C@@](OCc2ccccc2)(C(=O)O)C[C@@H]1O` [Compound 22, (2R,4S,5R,6R)-5-(3-(3,6,9,12,15-pentaoxaoctadec-17-yn-1-yl)ureido)-2-(benzyloxy)-6-((1R,2R)-3-(2-(4-chlorophenyl)acetamido)-1,2-dihydroxypropyl)-4-hydroxytetrahydro-2H-pyran-2-carboxylic acid], the Kd in experiment [1] is over 10000 nM; in experiment [2], 1000 to 10000 nM; in experiment [3], 1000 to 10000 nM.
